Measurements published in PMC12040169 (PLOS Biology, 2025).

assay: in vitro; conditions: human, hela cells, % viability

Cc1csc(Sc2nc3ccccc3nc2N2CCCC2)n1 [CBK093788] and c1ccc2c(N3CCCCC3)cnnc2c1 [CBK066897] are the same in viability at 28.5 h, 10 µM: 99.2% for the first, 99.2% for the second.

First: CN(C)C(=O)CSc1nc2cc(Cl)ccc2c(=O)n1CC1CCCO1 (centres unmarked) [CBK305932]
Second: Cn1c(N2CCOCC2)nc2cc(C(=O)NCCn3cccn3)ccc21 [CBK307033]
The viability at 28.5 h, 10 µM of the first is higher: 97.3% for the first, 87.5% for the second.

First: Cc1cc(Cl)ccc1OCC(=O)Nc1ccc(O)cc1C(=O)O [CBK131706]
Second: O=C(O)Cc1ccc(OCC(=O)NCc2ccc(Cl)cc2Cl)cc1 [CBK296628]
The viability at 28.5 h, 10 µM of the first is lower: 86% for the first, 109% for the second.

First: Cc1nn(C)c(C)c1CC(=O)N1CCc2c(sc3ncnc(N)c23)C1 [CBK306065]
Second: Cc1ccccc1-n1nc(C)c(CN2CCC(O)C(C)C2)c1C (centres unmarked) [CBK282739]
The viability at 28.5 h, 10 µM of the first is higher: 86.9% for the first, 84.2% for the second.

Compared with O=C(Nc1ccc(F)cc1)c1[nH]c2ccccc2c1NS(=O)(=O)c1ccc(C(F)(F)F)cc1[N+](=O)[O-] [CBK050090], CCN(CC)C(=O)c1[nH]c2ccccc2c1NS(=O)(=O)Cc1ccccc1 [CBK050107] is higher in viability at 28.5 h, 10 µM: 90.1% for the first, 108% for the second.

Going from CCN1CCC(CC(=O)N2CCc3[nH]c4ccccc4c3C2)CC1 [CBK281846] to Cc1ccc2[nH]c(CN3CCC(O)C3)cc(=O)c2c1 (centres unmarked) [CBK307690], the viability at 28.5 h, 10 µM rises from 86.5% to 91.5%.

First: Cc1cccc(CN(CC(=O)Nc2ccc(F)cc2F)S(=O)(=O)c2ccc(Cl)cc2)c1 [CBK265164]
Second: CS(=O)(=O)c1ccc(-c2ccc(C(=O)NCc3ccccc3)cn2)cc1 [CBK158885]
The viability at 28.5 h, 10 µM of the first is lower: 84.9% for the first, 89.2% for the second.

First: CN(C)S(=O)(=O)N1CCN(c2ccc([N+](=O)[O-])c(NCCc3ccccc3)c2)CC1 [CBK266498]
Second: Cc1nc2ccc(C(=O)N3CCN(C)CC3)cn2c1N(C)C(=O)CCc1ccccc1 [CBK146786]
The viability at 28.5 h, 10 µM of the first is higher: 102% for the first, 95.3% for the second.

Going from CC(=O)NC1(c2ccc(F)cc2)CCN(C(=O)C2CCCCC2)CC1 [CBK283546] to CC1CCN(S(=O)(=O)c2ccc(C(=O)O)cc2)CC1 [CBK287195], the viability at 28.5 h, 10 µM falls from 96.9% to 82.7%.

Compared with Cc1cccc(OCCOc2ccc(Br)cc2/C=C2\SC(=N)NC2=O)c1 [CBK263958], COC(=O)c1cc(C#N)c(=O)n(CC(O)COc2cccc(Br)c2)c1 (centres unmarked) [CBK304984] is lower in viability at 28.5 h, 10 µM: 102% for the first, 80.5% for the second.

Compared with CC(c1ccccc1)N(C)C(=O)Cn1c(-c2cccs2)n[nH]c1=S (centres unmarked) [CBK296718], O=C(O)CCc1ccc(-c2cccs2)n1CCc1ccccc1 [CBK265983] is higher in viability at 28.5 h, 10 µM: 95.6% for the first, 113% for the second.

Compared with COC(=O)c1cccc2c1[nH]c1ccccc12 [CBK001709], CC(Oc1cccc2ccccc12)C(=O)N/N=C/c1ccc(Cl)cc1Cl (centres unmarked) [CBK262218] is lower in viability at 28.5 h, 10 µM: 99.9% for the first, 97% for the second.

First: Cc1ccc(OCc2nc(C#N)c(NCCCN3CCOCC3)o2)cc1 [CBK266423]
Second: Cc1ccc(OCC(=O)NCC2CCN(c3cnn(C)c(=O)c3)C2)cc1 (centres unmarked) [CBK306693]
The viability at 28.5 h, 10 µM of the first is higher: 112% for the first, 83.6% for the second.

Compared with c1ccc(CCN2CCC(n3cnc4cccnc43)CC2)cc1 [CBK283581], O=C(c1cc(-c2ccncc2)nc2ccc(Cl)cc12)N1CCN(CCc2ccccc2)CC1 [CBK267719] is lower in viability at 28.5 h, 10 µM: 88.5% for the first, 86.6% for the second.

Compared with O=C(c1ccccc1)n1c(=S)nc2n(c1=S)CCN2 [CBK021794], O=C1NC2(CCc3ccccc31)CCN(C(=O)c1ccncc1)C2 (centres unmarked) [CBK283336] is higher in viability at 28.5 h, 10 µM: 84.3% for the first, 90.9% for the second.

Compared with CC(=O)Nc1ccc(Oc2cc(C)nc(C3CCNCC3)c2)cc1 [CBK283468], CC(Oc1ccc(Br)cc1)C(=O)Nc1ccc(C(N)=O)cc1 (centres unmarked) [CBK266760] is higher in viability at 28.5 h, 10 µM: 86.5% for the first, 112% for the second.

Going from COCCN(Cc1cc2ccc(C)cc2nc1O)C(=O)c1cccs1 [CBK269324] to O=C(c1cc2c(F)cccc2[nH]1)N(CCO)CCc1ccncc1 [CBK281644], the viability at 28.5 h, 10 µM falls from 100% to 98.3%.

Going from CS(=O)(=O)c1ccc(Cn2ccnc(OC3CCN(C(=O)c4cccc(C#N)c4)CC3)c2=O)cc1 [CBK161810] to CC(=O)OCC(=O)N1CCC(N(C)Cc2ccc(-c3ccc(S(C)(=O)=O)cc3)nc2)CC1 [CBK165268], the viability at 28.5 h, 10 µM rises from 105% to 116%.

Compared with Cc1ccccc1-n1c(=O)cc(N2CCN(c3ccc(F)cc3)CC2)[nH]c1=O [CBK287508], Cc1cc(C)c2nc(-c3cccnc3)cc(C(=O)N3CCN(S(=O)(=O)c4ccc(F)cc4)CC3)c2c1 [CBK267726] is lower in viability at 28.5 h, 10 µM: 95.1% for the first, 95% for the second.

Going from COc1ccc(C(=O)Nc2cc(C)c3c(=O)oc4ccccc4c3n2)cc1OC [CBK287442] to COc1cc(/C=C2/NC(=O)N(c3cccc(Cl)c3)C2=O)ccc1OCC(=O)Nc1ccc(F)cc1 [CBK265691], the viability at 28.5 h, 10 µM rises from 89% to 93%.

Going from O=C(O)c1sc2cc(C(F)(F)F)cnc2c1-c1cccs1 [CBK089890] to O=C1Nc2ccc(-c3cccc(C(F)(F)F)c3)cc2C(=O)N2CCN(C(=O)C3CC3)C[C@H]12 [CBK289585], the viability at 28.5 h, 10 µM falls from 114% to 79.4%.

Going from Cc1ccc(Nc2nc(N)nc(CN3CCN(Cc4ccc5c(c4)OCO5)CC3)n2)cc1 [CBK268985] to CC(C(=O)Nc1cccc(F)c1)N1CCN(Cc2cccnc2)CC1 (centres unmarked) [CBK305408], the viability at 28.5 h, 10 µM rises from 96.1% to 109%.

First: C#CCN(C)CC[C@@H]1CC[C@H](O)[C@@H](C(=O)N2CCOCC2)O1 [CBK288723]
Second: c1ncc(OC2CCNC2)nc1OCCN1CCOCC1 (centres unmarked) [CBK077311T]
The viability at 28.5 h, 10 µM of the first is higher: 108% for the first, 91.2% for the second.

First: COCCc1noc(CC2CCN(c3ccc(C#N)nc3)CC2)n1 [CBK304094]
Second: Cc1ccnn1CCC(=O)N1CCCC1c1cc2cccnc2[nH]1 (centres unmarked) [CBK282230]
The viability at 28.5 h, 10 µM of the first is lower: 89.9% for the first, 111% for the second.

First: CC(C)C(=O)Nc1cccc(-c2cn3ccsc3n2)c1 [CBK096253]
Second: O=C(O)c1cccc(-c2nc(-c3ccc(S(=O)(=O)N4CCOCC4)cc3)cs2)c1 [CBK297730]
The viability at 28.5 h, 10 µM of the first is lower: 67% for the first, 85.8% for the second.

Compared with O=c1n(Cc2ccccc2F)nc2nnc(-c3ccccc3)c(-c3ccccc3)n12 [CBK286179], c1ccc(CC(NCc2c[nH]c3ccccc23)c2ccccc2)cc1 (centres unmarked) [CBK262087] is higher in viability at 28.5 h, 10 µM: 80.9% for the first, 96.4% for the second.

First: O=C(O)C1CC(O)CN1S(=O)(=O)c1ccc(Cl)cc1 (centres unmarked) [CBK266106]
Second: O=C(O)CC(Cc1ccccc1)c1ccc(Cl)cc1 (centres unmarked) [CBK270231]
The viability at 28.5 h, 10 µM of the first is lower: 86.8% for the first, 89.6% for the second.

Compared with OCCN1CCN(c2cncc(-c3cccc(OC(F)(F)F)c3)n2)CC1 [CBK065941], O=C(NCCCn1ccnc1)N1CCN(Cc2ccc(Cl)cc2)CC1 [CBK305894] is lower in viability at 28.5 h, 10 µM: 108% for the first, 101% for the second.

First: CCCOc1cccn2c(N(CC(=O)N(C)C)C(C)=O)c(CC)nc12 [CBK147850]
Second: CC(=O)N(C)c1ncc(Br)cc1C(=O)NCc1nc2ccccc2[nH]1 [CBK076522]
The viability at 28.5 h, 10 µM of the first is higher: 102% for the first, 95.9% for the second.

Compared with CCOC(=O)CS(=O)(=O)Cc1cc(Cl)nc(Cl)c1 [CBK005544], CCn1c(=O)c(C=Cc2cccc(Br)c2)nc2cc(C(=O)O)ccc21 [CBK295364] is higher in viability at 28.5 h, 10 µM: 109% for the first, 110% for the second.

First: O=C(Nc1nc2n(n1)C(c1ccc(F)cc1)CC(c1ccccc1)N2)c1cccnc1 (centres unmarked) [CBK267953]
Second: COc1cccc(-c2cnc(N(C)C)nc2C2CCCN2Cc2ccc3ncccc3c2)c1 (centres unmarked) [CBK286251]
The viability at 28.5 h, 10 µM of the first is higher: 88.9% for the first, 85.5% for the second.

Going from Cc1ccc(S(=O)(=O)Nc2nc3ccc(S(=O)(=O)N4CCOCC4)cc3s2)cc1 [CBK266988] to O=S(=O)(c1ccc(-n2cnc(Cl)c2Cl)cc1)N1CCCN(Cc2csc(-c3ccccc3)n2)CC1 [CBK062790], the viability at 28.5 h, 10 µM rises from 88.8% to 104%.

Compared with O=C(O)CCCC(=O)Nc1ccc(C(=O)O)cc1 [CBK261534], CCN(CC)CCNC(=O)c1ccc(NS(=O)(=O)c2cc(C(=O)O)ccc2OC)cc1 [CBK296962] is higher in viability at 28.5 h, 10 µM: 86.5% for the first, 103% for the second.

Going from CC1CCN(S(=O)(=O)c2cccs2)CC1 [CBK102093] to CN1[C@@H]2CC[C@H]1C[C@@H](N1Cc3cc4ccccc4n3C1=O)C2 [CBK017722], the viability at 28.5 h, 10 µM rises from 118% to 124%.

First: NCCNc1ccc([N+](=O)[O-])c(Sc2nc3ccccc3[nH]2)c1 [CBK265882]
Second: CC(C)Cc1ccc(S(=O)(=O)Nc2ccc3[nH]c(=O)[nH]c3c2)cc1 [CBK270131]
The viability at 28.5 h, 10 µM of the first is higher: 106% for the first, 94.3% for the second.

Compared with CCN(Cc1ccccc1)Cc1ccco1 [CBK261884], Nc1nnc(SCc2nc3ccccc3n2Cc2ccccc2)s1 [CBK264649] is lower in viability at 28.5 h, 10 µM: 111% for the first, 92.1% for the second.

Going from NC(=O)CN1CC2(CCN(CCCCC3NC(=O)NC3=O)CC2)c2ccccc21 (centres unmarked) [CBK126799] to CCOC(=O)c1c(NC(=O)c2ccccc2C(=O)O)sc2c1CCCC2 [CBK116364], the viability at 28.5 h, 10 µM rises from 95.9% to 113%.

Compared with COc1ccc(Oc2cncc(OC3CCN(CCCn4c(=O)[nH]c5ccccc54)C3)n2)cc1OC (centres unmarked) [CBK084406], COc1ccc(CN2C(=S)N(c3ccc(OC)cc3)[C@H]3[C@@H]2[C@H]2OC(=O)[C@@H]3C[C@H]2O)cc1 [CBK288934] is lower in viability at 28.5 h, 10 µM: 97.6% for the first, 85.4% for the second.

Compared with Nc1cc(-c2ccco2)nn(Cc2c(Cl)cccc2Cl)c1=O [CBK282880], CCc1cccc(-n2nc(C)c3c2NC(=O)CC3C(=O)c2ccc(CC)s2)c1 (centres unmarked) [CBK294435] is higher in viability at 28.5 h, 10 µM: 112% for the first, 113% for the second.

Compared with c1ccc(C(Nc2cnccn2)C2CC2)cc1 (centres unmarked) [CBK304145], CC(C)Nc1cncc(SCCN(C)C)n1 [CBK105292] is lower in viability at 28.5 h, 10 µM: 106% for the first, 90.6% for the second.

Compared with COCCC(=O)N[C@H]1CC[C@]2(C)CCC([C@H](C)C(=O)N3CCC(C)CC3)[C@H](O)[C@H]2[C@@H]1C (some centres unmarked) [CBK289451], CC(C)(C)OC(=O)N1CCN(C(=O)N[C@@H](Cc2ccccc2)C(=O)O)CC1 [CBK286785] is higher in viability at 28.5 h, 10 µM: 103% for the first, 113% for the second.

Going from O=[N+]([O-])c1ccc(-c2ccc(/C=C/c3cc(O)c4ccccc4n3)o2)cc1 [CBK267792] to CC(C)(O)c1cc(CC2(NCc3ccc(Cl)cc3)COC2)no1 [CBK289254], the viability at 28.5 h, 10 µM falls from 92.1% to 80.1%.

Work on CCN(CC)C1=NC(=S)N(C)C(c2ccc(OC)cc2)S1 (centres unmarked) [CBK006804] yielded a viability at 28.5 h, 10 µM of 99.3%.

same assay, conditions: human, hela cells, % viability, bulk resorufin, single well

Cc1ccc(Cn2nc(C(=O)Nc3cc(C)nn3C)c3ccccc32)cc1 [CBK047842] showed a viability at 28.5 h, 10 µM of 77.9%.
